Reference: US20260014129A1, “MITOCHONDRIAL PYRUVATE METABOLISM INHIBITORS FOR TREATING CHRONIC MYELOID LEUKEMIA” (The University Court of the University of Glasgow, priority 2022, published 2026)

Columns and labels:
CML CD34+ cells [1] = assay: Patient-derived xenograft of CML CD34+ cells in NRG-W41 mice, bone marrow flow cytometry; assay type: in vivo, human; conditions: 4 weeks
Method: Treatment was given for 4 weeks. For treatment with asciminib (ABL001) plus MSDC-0160, twelve weeks following transplant, drug treatment was started with both asciminib (Fisher Scientific Cat #1642956) dosed at 10 mg/kg/day (5 mg/kg BID); oral gavage and MSDC-0160 (Apex Biotechnology: Cat #B3702) dosed at 30 mg/kg; oral gavage once daily. Treatment was given for 4 weeks. At the respective endpoints, bone marrow cells were collected. This was done by placing inverted cut leg bones into 0.5 mL Eppendorf tubes with holes at bottom. These in turn were placed within 1.5 mL Eppendorf tubes containing PBS, centrifuged (12,000 RCF, 20 seconds). Cells were stained (300 μl/test) with anti-mouse (APC-Cy7 BD Biosciences: Cat #557659, RRID: AB_396774, 1 μl), anti-human CD45 (FITC; BD Biosciences: Cat #555482, RRID: AB_395874, 10 μl), anti-human CD34 (APC; BD Biosciences: Cat #555824, RRID: AB_398614, 2 μl) and anti-human CD38 (PerCP; BioLegend: Cat #303520, RRID: AB_893313, 2 μl) antibodies for flow cytometry analysis as described above.

K562 CML cell line = assay: 13C6 glucose tracing in K562 CML cell line; assay type: cell-based, human; conditions: K562, several concentrations
Method: (§1) For conjugation of palmitate, a 20 mM stock was made in 100% EtOH. This was incubated on a shaking heater, 60° C. until the solution clarified. The palmitate was then added to 10% BSA (ultra-fatty acid free in EBSS, Roche, 03117057001) to give a palmitate:BSA ratio of 1:3 BSA. This solution was left for 15 min in water bath (37° C.), and then added to final concentration in complete medium. For cell line experiments, the medium was RPMI with 10% dialysed FBS and 1% penicillin/streptomycin. For tracing experiments 11 mM ^13C6 glucose was added to glucose-free RPMI.
(§2) Biological and technical replicates were processed through Autoplotter (56) and natural abundance was corrected for. Fraction of enrichment was calculated as m+2 and above. For CML samples treated with or without imatinib, multiple paired T-tests were conducted on Log 10 transformed values in Graphpad Prism. The correction for multiple comparisons was the two-stage step-up method of Benjamini, Krieger and Yekutieli with an FDR (Q) value of 10%. For volcano plots Log 10 FC vs Log 10 (q value) are plotted with q values>5% in red and >10% in blue. For normal vs CML comparisons, the process was the same with the exception that unpaired t-tests were used. For PC activity in normal vs CML, this is denoted by fraction m+3. For imatinib vs untreated we look at relative activity to PDH. IE., the m+3/m+2 ratio and conducted multiple t-tests with correction for multiple comparisons being the two-stage step-up method of Benjamini, Krieger and Yekutieli with an FDR (Q) value of 10%. To examine contribution to carbon pool we corrected contribution of each isotopologue by the number of carbons it contributes to a given metabolite, i.e., for glutamine contribution from m+5 is greater than m+3. Note that for cell line experiments standard deviation is shown.

CML CD34+ cells [2] = assay: LC-MS steady state metabolite analysis of primary CML CD34+ cells; assay type: cell-based, human; conditions: nilotinib treatment, data not shown
Method: (§3) Cells were counted using a CASY counter with the following parameters: E-cur 7.5-22.5, N-cur 5.25-20.5. Cell number was multiplied by peak volume (size) and this number was used to calculate volume of solvent to extract in. Cells were pelleted by centrifugation (400 RCF, 10 minutes, room temperature) at which medium was removed for YSI analysis. Cells were then washed twice with ice cold PBS (Calcium and Magnesium free: Thermo Fisher Scientific) with pulse centrifugation (12,000RCF, 15 seconds, 4° C.) used between and after washes. Cells were then extracted in LC-grade ACN:MeOH:H2O solvent (−20° C., 5:3:2) by disrupting the pellet by pipetting followed by a 5 second vortex. Finally, debris was pelleted by centrifugation (16,000RCF, 10 minutes, 4° C.), supernatant transferred to LC-MS glass vials that were stored at −80° C. until analysis.
The LC system composed of a ZIC-pHILIC column (SeQuant, 150×2.1 mm, 5 μm, Merck KGaA) with a ZIC-pHILIC guard column (SeQuant, 20×2.1 mm) with an UltiMate 3000 HPLC system (Thermo Fisher Scientific). The aqueous mobile-phase solvent was 20 mM ammonium carbonate-0.1% ammonium hydroxide solution and with acetonitrile being used for organic mobile phase. A linear biphasic LC gradient was conducted from 80% organic to 80% aqueous for 15 min for a total run time of 22 min. The column temperature was maintained at 45° C. flow rate set to 200 μL/min.
The MS used in this study was a qExactive Plus Orbitrap Mass Spectrometer (Thermo Fisher Scientific) operating in polarity switching mode. The MS set up was calibrated using a custom CALMIX in both ionization modes before analysis and a tune file targeted towards the lower m/z range was used. Full scan (MS1) data was acquired in both ionization modes in profile mode at 70,000 resolution (at m/z range 75-1000), an automatic gain control (AGC) target of 1×10^6 (max fill time of 250 ms), with spray voltages +4.5 kV (capillary +50V, tube: […], skimmer: +20V) and −3.5 kV (capillary −50V, tube: […], skimmer: −20V) and s-lens RF level of 50 for the front optics. The capillary temperature 375° C., probe temperature 50′C, sheath gas flow rate 25, auxiliary gas flow rate 15a.u. 15 and sweep gas flow rate of 1a.u.
(§4) The peak areas of different metabolites were determined using Tracefinder 4.1 software (Thermo Fisher Scientific). Metabolites were identified by accurate mass of the singly charged ion and by known retention times on the pHILIC column. A commercially available standard compound mix (Merck: MSMLS-1EA) had been analysed previously on our LC-MS system to determine accurate ion masses and retention times. The 13C labelling was determined by quantifying peak areas for the accurate mass of all isotopologues of each metabolite.
Two independent experiments were performed, data normalised to first sample in each experiment, processed through Autoplotter (56), samples as experiments, and normalised data as replicates. […] For MSDC-0160 treated samples a batch correction (to non-drug control) was used prior to analysis using Metabonalyst. Volcano plots were generated, and an FDR adjusted t-test threshold 0.1 was utilised. Note both fold changes and p-values are log transformed. Top-25 scoring metabolites are included in heatmap.

CML CD34+ cells [3] = assay: 13C stable isotope tracing (glucose, glutamine, palmitate) in primary CML CD34+ cells; assay type: cell-based, human; conditions: nilotinib treatment, data not shown
Method: as §1, §3, §4
as §2, with “10%.” for “10%. To examine contribution to carbon pool we corrected contribution of each isotopologue by the number of carbons it contributes to a given metabolite, i.e., for glutamine contribution from m+5 is greater than m+3. Note that for cell line experiments standard deviation is shown.”

phospho-AMPK = conditions: previously shown (ref 42); cited from earlier work
K562 cells = assay: Viability (Annexin V/7AAD) and CFC assays of vector control versus PC knockout K562 cells; assay type: cell-based, human; conditions: 72 hours; 600 nm imatinib or 100 nm omacetaxine
Method: (a) Western blot of PC and loading control (tubulin) from vector control or PC knockout K562 cells. (b) Proliferation of K562 cells from A. Shown is average and SEM from 3 independent experiments. (c) Fractional labelling from ^13C6 glucose into indicated metabolites of PC knockout cells are shown (n=3) after 24 hours. Plots were generated using Autoplotter, average and SD are plotted. Statistical analyses were conducted on the m+5 fraction. An ordinary one-way ANOVA was used with Dunnett's test used to correct for multiple comparisons. (d) Cells viability was measured using Annexin V and 7AAD. Cells were either left untreated (UT) or exposed for 72 hours to 600 nm imatinib or 100 nm omacetaxine (OMA). Shown is average and SEM from 4 independent experiments. An ordinary one-way ANOVA was used with Dunnett's test used to correct for multiple comparisons. (e) Colony Forming Cell (CFC) potential of control and […] cells. Cells were either left untreated (UT) or exposed for 72 hours to 600 nm imatinib. Shown is average and SEM from 4 independent experiments. An ordinary one-way ANOVA was used with Dunnett's test used to correct for multiple comparisons. […]

Structure (SMILES): O=C(Nc1ccc(OC(F)(F)Cl)cc1)c1cnc(N2CC[C@@H](O)C2)c(-c2ccn[nH]2)c1 [ABL-001]
- engraftment of human CML cells in bone marrow (CML CD34+ cells [1]; ABL-001 10 mg/kg/day (5 mg/kg BID), 12 weeks engraftment): variable increase in engraftment
- CD34+ cells in bone marrow (CML CD34+ cells [1]; ABL-001 10 mg/kg/day): not affected

Structure (SMILES): N#C/C(=C\c1cn(-c2ccccc2)c2ccccc12)C(=O)O [UK-5099]
- labelled fractions in alpha-ketoglutarate (AKG) and AKG-derived glutamate (K562 CML cell line): reducing levels of all labelled fractions in these metabolites in a concentration-dependent manner
- glucose contribution to fraction of labelling (K562 CML cell line; data not shown): concentration-dependent reduction

Structure (SMILES): Cc1cn(-c2cc(NC(=O)c3ccc(C)c(Nc4nccc(-c5cccnc5)n4)c3)cc(C(F)(F)F)c2)cn1 [nilotinib]
- total metabolite levels (CML CD34+ cells [2]): reduction
- 13C-glucose incorporation into TCA cycle metabolites (CML CD34+ cells [3]): reduction
- phospho-AMPK in CD34+ CML cells (phospho-AMPK): increase

Structure (SMILES): COC(=O)C[C@](O)(CCCC(C)(C)O)C(=O)O[C@@H]1C(OC)=C[C@]23CCCN2CCc2cc4c(cc2[C@H]13)OCO4 [omacetaxine mepesuccinate]
- sensitisation of K562 to the drug by PC ablation, viability and CFC assays (K562 cells): not observed
